In patent publication US9938322B2, “β-hairpin peptidomimetics” (priority 2013, dated 2018):
*1 amine or outer side, *2 acyl side, *3 side chain or, on linkers, in order; H or OH if unused. Where a SMILES comes first, the peptide text is derived from it. Side-chain parts run from the residue outwards. [ ]: non-standard residue; d: D form. The star is where a group is joined. Pro(3S-OH) = O=C(O)[C@H]1NCC[C@@H]1O; Cha = N[C@@H](CC1CCCCC1)C(=O)O; NH(3-picolyl) = c1cncc(CN*)c1; Chg = N[C@H](C(=O)O)C1CCCCC1; Tle = CC(C)(C)[C@H](N)C(=O)O; dDab = NCC[C@@H](N)C(=O)O; Orn = NCCC[C@H](N)C(=O)O; Dab = NCC[C@H](N)C(=O)O; Nva = CCC[C@H](N)C(=O)O; Dap = NC[C@H](N)C(=O)O; CO = O=C([*:1])[*:2]

Tested on: human red blood cells (hRBC)
Test: Hemolysis of human red blood cells
Type: cell-based
Conditions: red cells of human, 1 h, 100
In short: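 Washed fresh human erythrocytes (20% v/v, about 0.9×10^9 cells/ml final) incubated with peptide at 100 μg/ml for 1 h at 37° C with shaking. Supernatant OD540 read; hemolysis expressed relative to 2.5% Triton X-100 (100%) and PBS with 0.001% acetic acid (0%).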

| Structure (SMILES) | Hemolysis at 100 μg/ml [%] |
| --- | --- |
| CC(C)C[C@@H]1NC(=O)[C@@H]2CCCN2C(=O)[C@H]2CCCN2C(=O)[C@H](CO)NC(=O)[C@H](C)NC(=O)[C@H](C(C)(C)C)NC(=O)[C@H](CCN)NC(=O)[C@H](Cc2c[nH]c3ccccc23)NC(=O)[C@H](CCN)NC(=O)[C@@H](CCN)NC(=O)[C@H](CCCCN)NC(=O)[C@H](CCN)NC(=O)[C@H](Cc2ccc(O)cc2)NC(=O)[C@H](CO)NC1=O [compound 25] (cyclo(LSY[Dab]K[dDab][Dab]W[Dab][Tle]AS[dP]P)) | 1 |
| CC(C)[C@@H]1NC(=O)[C@H](CCN)NC(=O)[C@H](Cc2c[nH]c3ccccc23)NC(=O)[C@H](CCN)NC(=O)[C@@H](CCN)NC(=O)[C@H](CCCN)NC(=O)[C@H](CCN)NC(=O)[C@H](Cc2ccc(O)cc2)NC(=O)[C@H](CO)NC(=O)[C@H](Cc2c[nH]c3ccccc23)NC(=O)[C@@H]2CCCN2C(=O)[C@H]2CCCN2C(=O)[C@H](CO)NC(=O)[C@H](C)NC1=O [compound 72] (cyclo(WSY[Dab][Orn][dDab][Dab]W[Dab]VAS[dP]P)) | 0 |
| C[C@@H]1NC(=O)[C@H](C(C)(C)C)NC(=O)[C@H](CCN)NC(=O)[C@H](Cc2c[nH]c3ccccc23)NC(=O)[C@H](CCN)NC(=O)[C@@H](CCN)NC(=O)[C@H](CCCN)NC(=O)[C@H](CCN)NC(=O)[C@H](Cc2ccc(O)cc2)NC(=O)[C@H](CN)NC(=O)[C@H](Cc2ccccc2)NC(=O)[C@@H]2CCCN2C(=O)[C@H]2CCCN2C(=O)[C@H](CO)NC1=O [compound 160] (cyclo(F[Dap]Y[Dab][Orn][dDab][Dab]W[Dab][Tle]AS[dP]P)) | 1 |
| CC[C@H](C)[C@@H]1NC(=O)[C@@H]2CCCN2C(=O)[C@H]2CCCN2C(=O)[C@H](CO)NC(=O)[C@H](C)NC(=O)[C@H](C(C)(C)C)NC(=O)[C@H](CCN)NC(=O)[C@H](Cc2c[nH]c3ccccc23)NC(=O)[C@H](CCN)NC(=O)[C@@H](CCN)NC(=O)[C@H](CCCN)NC(=O)[C@H](CCN)NC(=O)[C@H](Cc2ccc(O)cc2)NC(=O)[C@H]([C@@H](C)O)NC1=O [compound 84] (cyclo(ITY[Dab][Orn][dDab][Dab]W[Dab][Tle]AS[dP]P)) | 0 |
| CC(C)C[C@@H]1NC(=O)[C@@H]2CCCN2C(=O)[C@H]2CCCN2C(=O)[C@H](CO)NC(=O)[C@H](C)NC(=O)[C@H](C2CCCCC2)NC(=O)[C@H](CCN)NC(=O)[C@H](Cc2c[nH]c3ccccc23)NC(=O)[C@H](CCN)NC(=O)[C@@H](CCN)NC(=O)[C@H](CCCN)NC(=O)[C@H](CCN)NC(=O)[C@H](Cc2ccc(O)cc2)NC(=O)[C@H](CO)NC1=O [compound 29] (cyclo(LSY[Dab][Orn][dDab][Dab]W[Dab][Chg]AS[dP]P)) | 6 |
| CC(C)C[C@@H]1NC(=O)[C@@H]2CCCN2C(=O)[C@H]2CCCN2C(=O)[C@H](CO)NC(=O)[C@@H](C)NC(=O)[C@H](C(C)(C)C)NC(=O)[C@H](CCN)NC(=O)[C@H](Cc2c[nH]c3ccccc23)NC(=O)[C@H](CCN)NC(=O)[C@@H](CCN)NC(=O)[C@H](CCCN)NC(=O)[C@H](CCN)NC(=O)[C@H](Cc2ccc(O)cc2)NC(=O)[C@H](CO)NC1=O [compound 154] (cyclo(LSY[Dab][Orn][dDab][Dab]W[Dab][Tle][dA]S[dP]P)) | 0 |
| CCC[C@@H]1NC(=O)[C@@H]2CCCN2C(=O)[C@H]2CCCN2C(=O)[C@H](CO)NC(=O)[C@H](C)NC(=O)[C@H](C2CCCCC2)NC(=O)[C@H](CCN)NC(=O)[C@H](Cc2c[nH]c3ccccc23)NC(=O)[C@H](CCN)NC(=O)[C@@H](CCN)NC(=O)[C@H](CCCN)NC(=O)[C@H](CCN)NC(=O)[C@H](C(C)(C)C)NC(=O)[C@H](CO)NC1=O [compound 138] (cyclo([Nva]S[Tle][Dab][Orn][dDab][Dab]W[Dab][Chg]AS[dP]P)) | 1 |
| C[C@@H]1NC(=O)[C@H](Cc2c[nH]c3ccccc23)NC(=O)[C@@H]2CCCN2C(=O)[C@H]2CCCN2C(=O)[C@H](CO)NC(=O)[C@H](C)NC(=O)[C@H](C(C)(C)C)NC(=O)[C@H](CCN)NC(=O)[C@H](Cc2c[nH]c3ccccc23)NC(=O)[C@H](CCN)NC(=O)[C@@H](CCN)NC(=O)[C@H](CCCN)NC(=O)[C@H](CCN)NC(=O)[C@H](Cc2ccc(O)cc2)NC1=O [compound 4] (cyclo(WAY[Dab][Orn][dDab][Dab]W[Dab][Tle]AS[dP]P)) | 1 |
| CC(C)C[C@@H]1NC(=O)[C@@H]2CCCN2C(=O)[C@H]2CCCN2C(=O)[C@H](CO)NC(=O)[C@H](C)NC(=O)[C@H](C(C)(C)C)NC(=O)[C@H](CCCNC(=N)N)NC(=O)[C@H](Cc2c[nH]c3ccccc23)NC(=O)[C@H](CCN)NC(=O)[C@@H](CCN)NC(=O)[C@H](CCCN)NC(=O)[C@H](CCN)NC(=O)[C@H](Cc2ccc(O)cc2)NC(=O)[C@H](CO)NC1=O [compound 97] (cyclo(LSY[Dab][Orn][dDab][Dab]WR[Tle]AS[dP]P)) | 1 |
| CCC[C@@H]1NC(=O)[C@@H]2CCCN2C(=O)[C@H]2CCCN2C(=O)[C@H]([C@@H](C)O)NC(=O)[C@H](CO)NC(=O)[C@H](C2CCCCC2)NC(=O)[C@H](CCN)NC(=O)[C@H](Cc2c[nH]c3ccccc23)NC(=O)[C@H](CCN)NC(=O)[C@@H](CCN)NC(=O)[C@H](CCN)NC(=O)[C@H](CCN)NC(=O)[C@H](Cc2ccc(O)cc2)NC(=O)[C@H](C)NC1=O [compound 132] (cyclo([Nva]AY[Dab][Dab][dDab][Dab]W[Dab][Chg]ST[dP]P)) | 1.5 |
| CC(C)C[C@@H]1NC(=O)[C@@H]2[C@@H](O)CCN2C(=O)[C@H]2CCCN2C(=O)[C@H](CO)NC(=O)[C@H](C)NC(=O)[C@H](Cc2ccc(O)cc2)NC(=O)[C@H](CCN)NC(=O)[C@H](Cc2c[nH]c3ccccc23)NC(=O)[C@H](CCN)NC(=O)[C@@H](CCN)NC(=O)[C@H](CCCN)NC(=O)[C@H](CCN)NC(=O)[C@H](Cc2ccc(O)cc2)NC(=O)[C@H](CO)NC1=O [Ex. 55] (cyclo(LSY[Dab][Orn][dDab][Dab]W[Dab]YAS[dP][Pro(3S-OH)])) | 1 |
| C[C@@H]1NC(=O)[C@H](C(C)(C)C)NC(=O)[C@H](CCN)NC(=O)[C@H](Cc2c[nH]c3ccccc23)NC(=O)[C@H](CCN)NC(=O)[C@@H](CCN)NC(=O)[C@H](CCCN)NC(=O)[C@H](CCN)NC(=O)[C@H](C(C)(C)C)NC(=O)[C@H](CO)NC(=O)[C@H](Cc2c[nH]c3ccccc23)NC(=O)[C@@H]2CCCN2C(=O)[C@H]2CCCN2C(=O)[C@H](CO)NC1=O [compound 68] (cyclo(WS[Tle][Dab][Orn][dDab][Dab]W[Dab][Tle]AS[dP]P)) | 0 |
| C[C@@H]1NC(=O)[C@H](C(C)(C)C)NC(=O)[C@H](CCN)NC(=O)[C@H](Cc2c[nH]c3ccccc23)NC(=O)[C@H](CCN)NC(=O)[C@@H](CCN)NC(=O)[C@H](CCCN)NC(=O)[C@H](CCN)NC(=O)[C@H](CC2CCCCC2)NC(=O)[C@H](CNC(=O)NCc2cccnc2)NC(=O)[C@H](Cc2c[nH]c3ccccc23)NC(=O)[C@@H]2CCCN2C(=O)[C@H]2CCCN2C(=O)[C@H](CO)NC1=O [compound 16] (cyclo(W[Dap]([CO-NH(3-picolyl)])[Cha][Dab][Orn][dDab][Dab]W[Dab][Tle]AS[dP]P)) | 7 |
| CC(C)C[C@@H]1NC(=O)[C@@H]2CCCN2C(=O)[C@H]2CCCN2C(=O)[C@H](CO)NC(=O)[C@H](C)NC(=O)[C@H](Cc2ccc(O)cc2)NC(=O)[C@H](CCN)NC(=O)[C@H](Cc2c[nH]c3ccccc23)NC(=O)[C@H](CCN)NC(=O)[C@@H](CCN)NC(=O)[C@H](CCCN)NC(=O)[C@H](CCN)NC(=O)[C@H](Cc2ccc(O)cc2)NC(=O)[C@H](CO)NC1=O [compound 31] (cyclo(LSY[Dab][Orn][dDab][Dab]W[Dab]YAS[dP]P)) | 1 |
| CC(C)C[C@@H]1NC(=O)[C@@H]2CCCN2C(=O)[C@H]2CCCN2C(=O)[C@H](CO)NC(=O)[C@H]([C@@H](C)O)NC(=O)[C@H](C(C)(C)C)NC(=O)[C@H](CCN)NC(=O)[C@H](Cc2c[nH]c3ccccc23)NC(=O)[C@H](CCN)NC(=O)[C@@H](CCN)NC(=O)[C@H](CCCN)NC(=O)[C@H](CCN)NC(=O)[C@H](Cc2ccc(O)cc2)NC(=O)[C@H](CCN)NC1=O [compound 148] (cyclo(L[Dab]Y[Dab][Orn][dDab][Dab]W[Dab][Tle]TS[dP]P)) | 1 |
| C[C@@H]1NC(=O)[C@H](C(C)(C)C)NC(=O)[C@H](CCN)NC(=O)[C@H](Cc2c[nH]c3ccccc23)NC(=O)[C@H](CCN)NC(=O)[C@@H](CCN)NC(=O)[C@H](CCCN)NC(=O)[C@H](CCN)NC(=O)[C@H](Cc2ccc(O)cc2)NC(=O)[C@H](CO)NC(=O)[C@H](Cc2ccc(O)cc2)NC(=O)[C@@H]2CCCN2C(=O)[C@H]2CCCN2C(=O)[C@H](Cc2ccc(O)cc2)NC1=O [compound 153] (cyclo(YSY[Dab][Orn][dDab][Dab]W[Dab][Tle]AY[dP]P)) | 2 |
| C[C@@H]1NC(=O)[C@H](Cc2c[nH]c3ccccc23)NC(=O)[C@@H]2[C@@H](O)CCN2C(=O)[C@H]2CCCN2C(=O)[C@H](CO)NC(=O)[C@H](CO)NC(=O)[C@H](C(C)(C)C)NC(=O)[C@H](CCN)NC(=O)[C@H](Cc2c[nH]c3ccccc23)NC(=O)[C@H](CCN)NC(=O)[C@@H](CCN)NC(=O)[C@H](CCCN)NC(=O)[C@H](CCN)NC(=O)[C@H](C2CCCCC2)NC1=O [compound 65] (cyclo(WA[Chg][Dab][Orn][dDab][Dab]W[Dab][Tle]SS[dP][Pro(3S-OH)])) | 3.5 |
| C[C@@H]1NC(=O)[C@H](Cc2c[nH]c3ccccc23)NC(=O)[C@@H]2CCCN2C(=O)[C@H]2CCCN2C(=O)[C@H](CO)NC(=O)[C@H](C)NC(=O)[C@H](C(C)(C)C)NC(=O)[C@H](CCN)NC(=O)[C@H](Cc2c[nH]c3ccccc23)NC(=O)[C@H](CCN)NC(=O)[C@@H](CCN)NC(=O)[C@H](CCCN)NC(=O)[C@H](CCN)NC(=O)[C@H](C2CCCCC2)NC1=O [compound 3] (cyclo(WA[Chg][Dab][Orn][dDab][Dab]W[Dab][Tle]AS[dP]P)) | 2.5 |
